Reference: patent publication US11214803B2, “Modulators of YAP1 expression” (Ionis Pharmaceuticals, Inc., priority 2019, dated 2022)
Strand notation (5' to 3'): a small letter for the sugar, then the base; units joined by * are phosphorothioate-linked, units joined directly phosphodiester-linked; [ ] holds rarer units or linkages, { } end groups; capitals alone tell only the bases. e = 2'-O-(2-methoxyethyl) (MOE); k = constrained ethyl (cEt); [5mC] = 5-methylcytosine; d = 2'-deoxy (DNA); m = 2'-O-methyl

Each substance was assayed on Yap1 mRNA (assay: Antisense inhibition of human Yap1 in SNU-449 cells by modified oligonucleotides, single dose (Example 5, RTS36584)). Details: Table 39; SNU-449 cells, 10,000 cells per well, free uptake, 2,000 nM oligonucleotide, approx. 48 hours; RTS36584; normalized to RIBOGREEN; Yap1 mRNA relative to untreated control.
Type: cell-based
Method: Modified oligonucleotides with additional chemistry modifications were designed to target a Yap1 nucleic acid and were tested for their effect on Yap1 mRNA level in SNU-449 cells. The modified oligonucleotides were tested in a series of experiments that had similar culture conditions. Cultured SNU-449 cells at a density of 10,000 cells per well were treated using free uptake with 2,000 nM of modified oligonucleotide. After a treatment period of approximately 48 hours, RNA was isolated from the cells and Yap1 mRNA levels were measured by quantitative real-time RTPCR. Human primer probe set RTS36584 was used to measure mRNA levels. Yap1 mRNA levels were normalized to total RNA content, as measured by RIBOGREEN®. Results are presented in the tables below as percent control of the amount of Yap1 mRNA relative to untreated control cells (% UTC). The modified oligonucleotides with percent control values marked with an asterisk (*) target the amplicon region of the primer probe set. Additional assays may be used to measure the potency and efficacy of the modified oligonucleotides targeting the amplicon region.
Several different chemistry modifications were tested, which are specified in the Chemistry Notation column of the tables below, wherein the notation “d” refers to a 2′-deoxyribose sugar, the notation “s” refers to a phosphorothioate (P═S) internucleoside linkage, the notation “k” refers to a cEt modified sugar, the notation “y” refers to a 2′-O-methyl ribose sugar, the notation “e” refers to a MOE modified sugar, and the notation “^mC” refers to a 5-methylcytosine.
“Start site” indicates the 5′-most nucleoside to which the gapmer is targeted in the human gene sequence. “Stop site” indicates the 3′-most nucleoside to which the gapmer is targeted human gene sequence. […] Activity of the modified oligonucleotide may be defined in a different experiment.

Row | Substance | YAP1 (% UTC)
1 | 1198454 (kA*dG*dA*d[5mC]*dT*dA*dA*dG*dT*dA*dA*kG*eG*kT*eT*kT; antisense) [Compound 1198454] | 39 % UTC
2 | 1198448 (kA*dG*dT*dA*dA*dG*dG*dT*dT*dT*d[5mC]*k[5mC]*e[5mC]*kA*eG*kA) [Compound 1198448] | 36 % UTC
3 | 1198447 (kT*dA*dA*dG*dG*dT*dT*dT*d[5mC]*d[5mC]*d[5mC]*kA*eG*kA*eT*kT; antisense) [Compound 1198447] | 63 % UTC
4 | 1198400 (kA*dA*dG*d[5mC]*dA*d[5mC]*dT*dT*dT*dT*dA*k[5mC]*eA*kT*eT*kA; antisense) [Compound 1198400] | 62 % UTC

Same assay, conditions: Table 40 (separate experiment); SNU-449 cells, 10,000 cells per well, free uptake, 2,000 nM oligonucleotide, approx. 48 hours; RTS36584; normalized to RIBOGREEN; Yap1 mRNA relative to untreated control

Row | Substance | YAP1 (% UTC)
5 | 1198428 (kG*dA*d[5mC]*dA*dA*d[5mC]*dT*d[5mC]*dT*dT*dA*kT*eA*kT*eG*kG; antisense) [Compound 1198428] | 62 % UTC
6 | 1198743 (k[5mC]*eT*kT*dT*dT*dA*d[5mC]*dA*dT*dT*dA*dG*eG*eA*kA*k[5mC]; antisense) [Compound 1198743] | 86 % UTC
7 | 1198718 (kG*eA*kA*dA*dT*dT*dG*dT*d[5mC]*dT*d[5mC]*dA*eT*eG*k[5mC]*k[5mC]; antisense) [Compound 1198718] | 9 % UTC
8 | 1198426 (kA*dA*d[5mC]*dT*d[5mC]*dT*dT*dA*dT*dA*dT*kG*eG*kT*eT*kT; antisense) [Compound 1198426] | 111 % UTC

Same assay, conditions: Table 41; SNU-449 cells, 10,000 cells per well, free uptake, 2,000 nM modified oligonucleotide, approximately 48 hours; RTS36584; normalized to RIBOGREEN; Yap1 mRNA relative to untreated control cells

Row | Substance | YAP1 (% UTC)
9 | 1198740 (AACACTGAGGTATAAC; all C 5-methyl, sugars by position and backbone not given here; position 2 notation garbled, mixed cEt/MOE/deoxy gapmer) [Compound 1198740] | 39 % UTC
10 | 1198644 (kT*kA*dT*dA*dT*dT*dA*dG*dA*dG*dT*dA*kT*eG*kT*eG; antisense) [Compound 1198644] | 73 % UTC
11 | 1198793 (antisense k[5mC]*eT*kT*dT*dA*dA*dA*dG*dT*dG*dT*dA*eT*eG*kT*k[5mC]) [Compound 1198793] | 34 % UTC
12 | 1198638 (kA*kG*dA*dG*dT*dA*dT*dG*dT*dG*dG*d[5mC]*kA*eA*kT*eA; antisense) [Compound 1198638] | 18 % UTC

Same assay, conditions: Table 42 (separate experiment); SNU-449 cells, 10,000 cells per well, free uptake, 2,000 nM modified oligonucleotide, approximately 48 hours; RTS36584; normalized to RIBOGREEN; Yap1 mRNA relative to untreated control cells

Row | Substance | YAP1 (% UTC)
13 | 1198206 (kA*kT*dA*dT*dG*dG*dA*dA*dA*dT*dT*eG*eT*e[5mC]*kT*k[5mC]; antisense) [Compound 1198206] | 43 % UTC
14 | 1198224 (kA*k[5mC]*dT*dT*dT*dT*dA*d[5mC]*dA*dT*dT*eA*eG*eG*kA*kA) [Compound 1198224] | 74 % UTC
15 | 1198226 (kG*k[5mC]*dA*d[5mC]*dT*dT*dT*dT*dA*d[5mC]*dA*eT*eT*eA*kG*kG) [Compound 1198226] | 23 % UTC
16 | 1198238 (kA*kT*dA*dG*dT*dG*d[5mC]*dT*dT*dT*dG*eG*eA*eA*kG*kA) [Compound 1198238] | 88 % UTC
17 | 1198707 (kA*kA*dG*dT*dA*dA*dG*dG*dT*dT*dT*d[5mC]*k[5mC]*e[5mC]*kA*eG; antisense) [Compound 1198707] | 31 % UTC
18 | 1198694 (antisense kT*kA*dT*dG*dT*dA*dA*dT*dA*dT*dT*dG*k[5mC]*eA*kA*eT) [Compound 1198694] | 110 % UTC

Same assay, conditions: Table 43 experiment; SNU-449 cells, 10,000 cells per well, free uptake, 2,000 nM, approximately 48 hours; RTS36584; Yap1 mRNA normalized to RIBOGREEN, relative to untreated control cells

Row | Substance | YAP1 (% UTC)
19 | 1198269 (kA*kA*dA*dG*dT*dG*dT*dA*dT*dG*dT*e[5mC]*eA*eG*kA*kA; antisense) [Compound 1198269] | 58 % UTC
20 | 1198248 (kA*kT*dA*dT*dG*dG*dT*dT*dT*dT*dG*eT*eG*eT*kG*kT; antisense) [Compound 1198248] | 64 % UTC
21 | 1198460 (antisense kG*kA*dA*dA*dT*dT*dG*dT*d[5mC]*dT*d[5mC]*eA*kT*eG*k[5mC]*e[5mC]) [Compound 1198460] | 17 % UTC

Same assay, conditions: Table 44 experiment; SNU-449 cells, 10,000 cells per well, free uptake, 2,000 nM, approximately 48 hours; RTS36584; Yap1 mRNA normalized to RIBOGREEN, relative to untreated control cells

Row | Substance | YAP1 (% UTC)
22 | 1198530 (kT*kT*dT*dA*dA*dA*dG*dT*dG*dT*dA*eT*kG*eT*k[5mC]*eA; antisense) [Compound 1198530] | 29 % UTC
23 | 1198507 (kT*kT*dA*dT*dA*dT*dG*dG*dT*dT*dT*eT*kG*eT*kG*eT; antisense) [Compound 1198507] | 17 % UTC
24 | 1198475 (antisense kG*kG*dT*dA*dT*dA*dA*d[5mC]*dT*dG*dG*eG*k[5mC]*eA*kA*eA) [Compound 1198475] | 25 % UTC

Same assay, conditions: Table 45; Yap1 mRNA as percent of untreated control, SNU-449 cells, single dose

Row | Substance | YAP1 (% UTC)
25 | 1198936 (kA*kG*dA*dT*dT*dT*dA*dG*dG*dA*dT*kG*d[5mC]*kA*dT*kG; antisense) [Compound 1198936] | 38 % UTC

Same assay, conditions: Table 46; Yap1 mRNA as percent of untreated control, SNU-449 cells, single dose

Row | Substance | YAP1 (% UT)
26 | 1198852 (kT*k[5mC]*dA*dG*dA*dT*dT*dT*dA*dG*dG*kA*eT*kG*e[5mC]*kA; antisense) [Compound 1198852] | 41 % UT
27 | 1198884 (kT*kA*dA*dG*dT*dA*dA*dG*dG*dT*dT*kT*e[5mC]*k[5mC]*e[5mC]*kA; antisense) [Compound 1198884] | 28 % UT

Same assay, conditions: Table 49; Yap1 mRNA level relative to untreated control; modified oligonucleotides targeting SEQ ID NO.: 1 and 2

Row | Substance | YAP1 (% UT)
28 | 1198306 (kA*kA*k[5mC]*dA*d[5mC]*dT*dG*dA*dG*dG*dT*dA*kT*eA*kA*e[5mC]; antisense) [Compound 1198306] | 64 % UT
29 | 1198579 (antisense kT*kG*k[5mC]*dT*dT*dT*dG*dG*dA*dA*dG*dA*kT*k[5mC]*kT*eG) [Compound 1198579] | 34 % UT
30 | 1198571 (antisense kA*kG*k[5mC]*dA*d[5mC]*dT*dT*dT*dT*dA*d[5mC]*dA*kT*kT*kA*eG) [Compound 1198571] | 32 % UT
31 | 1198544 (antisense kA*kA*kT*dT*dG*dT*d[5mC]*dT*d[5mC]*dA*dT*dG*k[5mC]*k[5mC]*kT*eT) [Compound 1198544] | 21 % UT
32 | 1198366 (kA*k[5mC]*kT*dA*dA*dG*dT*dA*dA*dG*dG*dT*kT*eT*k[5mC]*e[5mC]; antisense) [Compound 1198366] | 45 % UT

Same assay, conditions: Table 50; Yap1 mRNA remaining as percent of untreated control (UT), SNU-449 cells, single dose

Row | Substance | YAP1 (% UT)
33 | 1198613 (antisense kA*kA*kA*dG*dT*dG*dT*dA*dT*dG*dT*d[5mC]*kA*kG*kA*eA) [Compound 1198613] | 3 % UT
34 | 1197283 (kG*kA*kA*dA*mU*dT*dG*dT*d[5mC]*dT*d[5mC]*dA*dT*kG*k[5mC]*k[5mC]; antisense) [Compound 1197283] | 29 % UT
35 | 1198605 (antisense kG*kT*kA*dA*dT*dA*dT*dT*dG*d[5mC]*dA*dA*kT*k[5mC]*kT*eG) [Compound 1198605] | 7 % UT

Same assay, conditions: Table 51; Yap1 mRNA remaining as percent of untreated control (UT), SNU-449 cells, single dose

Row | Substance | YAP1 (% UT)
36 | 1197272 (^{m}C_{ks}T_{ks}T_{ks}T_{ds}A_{ys}A_{ds}A_{ds}G_{ds}T_{ds}G_{ds}T_{ds}A_{ds}T_{ds}G_{ks}T_{ks}^{m}C_{k}; as printed in the source, key not given here) [Compound 1197272] | 32 % UT
37 | 1197304 (k[5mC]*kT*k[5mC]*dT*mU*dA*dT*dA*dT*dG*dG*dT*dT*kT*kT*kG; antisense) [Compound 1197304] | 45 % UT
38 | 1200794 (kA*kG*kA*dG*dT*mA*dT*dG*dT*dG*dG*d[5mC]*dA*kA*kT*kA; antisense) [Compound 1200794] | 18 % UT

Same assay, conditions: Table 52; Yap1 mRNA, modified oligonucleotides targeting SEQ ID NO: 1 and 2

Row | Substance | YAP1 (% UT)
39 | 1200823 (k[5mC]*kT*kT*dT*dG*mG*dA*dA*dG*dA*dT*d[5mC]*dT*kG*kA*kA; antisense) [Compound 1200823] | 46 % UT
40 | 1200813 (k[5mC]*kT*kT*dT*dT*mA*d[5mC]*dA*dT*dT*dA*dG*dG*kA*kA*k[5mC]; antisense) [Compound 1200813] | 58 % UT

Same assay, conditions: Yap1 mRNA, percent of untreated control; modified oligonucleotides targeting SEQ ID NO: 1 and 2; Table 47

Row | Substance | YAP1 (% UT)
41 | 1197207 (antisense kA*kA*kT*dA*dT*dT*dG*d[5mC]*dA*dA*dT*d[5mC]*dT*kG*kT*k[5mC]) [Compound 1197207] | 51 % UT
42 | 1009394 (kT*kA*kT*dA*dA*d[5mC]*dT*dG*dG*dG*d[5mC]*dA*dA*kA*kT*kT; antisense) [Compound 1009394] | 73 % UT
